The values below are quoted from earlier work in patent publication US20150065426A1, “Testosterone Booster Transdermal Compositions” (Professional Compounding Centers Of America, priority 2013, published 2015).

The conditions of series [1]: after the use of anastrozole for about 7 days.
The conditions of series [2]: men with elevated estradiol / hormone disorders.

In the case of `CC(C)(C#N)c1cc(Cn2cncn2)cc(C(C)(C)C#N)c1` [anastrozole, Anastrozole], in series [1], the “increase of natural testosterone levels” value is given as at most 60%. Further, the estradiol levels result in series [2] is on record as “significant decrease”.
